From ChEMBL document CHEMBL5608141, “Identification of compartment-specific drug sensitivities in CRC organoid-stroma co-cultures” (2024)

Key:
Format in all cases: functional, Homo sapiens
Set-up in all cases: dose or concentration left out as unconfirmed
[1] = system: Colon cancer organoid; test: Identification of compartment-specific drug sensitivities in O06 CRC organoid-stroma F06 CAF co-cultures. Organoid is transduced with Lucferase2-P2A-EGFP lentivirus, fibroblast with Renilla-dsRed lentivirus. Dual-Glo Luciferase assay is used to report viability data.
[2] = system: Colon cancer organoid; test: Identification of compartment-specific drug sensitivities in O14 CRC organoid-stroma F14 CAF co-cultures. Organoid is transduced with Lucferase2-P2A-EGFP lentivirus, fibroblast with Renilla-dsRed lentivirus. Dual-Glo Luciferase assay is used to report viability data.
[3] = system: Colon cancer organoid; test: Identification of compartment-specific drug sensitivities in O20 CRC organoid-stroma F20 CAF co-cultures. Organoid is transduced with Lucferase2-P2A-EGFP lentivirus, fibroblast with Renilla-dsRed lentivirus. Dual-Glo Luciferase assay is used to report viability data.
[4] = Transduced with Lucferase2-P2A-EGFP lentivirus
[5] = Transduced with Renilla-dsRed lentivirus

| Structure (SMILES) | Cell Viability [1, 4] | Cell Viability [1, 5] | Cell Viability [2, 4] | Cell Viability [2, 5] | Cell Viability [3, 4] | Cell Viability [3, 5] |
| --- | --- | --- | --- | --- | --- | --- |
| Cc1c(C(=O)Nc2ccc(Oc3ccnc4[nH]cc(-c5ccccc5)c34)c(F)c2)c(=O)n(-c2ccc(F)cc2)n1C | 73.6786% | 56.2803% | 62.1416% | 28.9447% | 225.47% | 22.9382% |
| Cc1ccc2nc(NCCN)c3ncc(C)n3c2c1.O=C(O)C(F)(F)F.O=C(O)C(F)(F)F | 94.0156% | 112.188% | 111.823% | 88.3847% | 234.528% | 67.6056% |
| CN(C)C(=O)Cn1cc(-c2ccc(-c3nnc4ccccn34)cc2)cn1 | 105.212% | 110.192% | 99.1399% | 78.8551% | 167.784% | 52.6743% |
| Cc1ncsc1-c1ccc(CNC(=O)[C@@H]2C[C@@H](O)CN2C(=O)[C@@H](NC(=O)CCCCNC(=O)c2ccc(-c3ccc(N4CCN(C)CC4)c(NC(=O)c4c[nH]c(=O)cc4C(F)(F)F)c3)cc2)C(C)(C)C)cc1 | 81.8894% | 85.2238% | 124.425% | 102.442% | 172.591% | 86.697% |
| O=C(CNCc1cc2ccccc2[nH]1)N[C@H]1CC[C@@H](c2nc3ccccc3[nH]2)CC1 | 85.8975% | 91.436% | 106.264% | 107.393% | 100.403% | 124.153% |
| N#CN1CC[C@H](C(=O)Nc2nc3c(s2)CN(C(=O)CN=[N+]=[N-])CC3)C1 [8RK64] | 104.648% | 104.354% | 81.1298% | 93.9024% | 67.6209% | 105.29% |
| CN(C)[C@@H]1CCN(c2cc(-c3ccccc3)nc3ccnn23)C1 [(R)-ZINC-3573] | 122.992% | 121.371% | 83.9602% | 82.5117% | 97.984% | 99.7993% |
| CN(C)[C@H]1CCN(c2cc(-c3ccccc3)nc3ccnn23)C1 [(S)-ZINC-3573] | 87.7689% | 121.05% | 98.973% | 77.8832% | 93.0253% | 112.128% |
| Cn1cncc1[C@@](O)(COc1ccc(C#N)cc1-c1ccc(OC(F)(F)F)cc1)c1ccc(C#N)cc1 [A-108] | 61.6996% | 139.827% | 94.7328% | 120.862% | 89.1467% | 110.638% |
| CCC(=N\O)/C(C)=C/c1ccc(F)c(C)c1 [A-226] | 127.527% | 100.08% | 131.471% | 101.092% | 93.31% | 115.263% |
| CCCCN(CCCC)C(=O)CN1C[C@@H](c2cc(OC)c3c(c2)OCO3)[C@H](C(=O)O)[C@H]1CC(C)(C)CCC [A-545] | 84.2855% | 55.5874% | 148.86% | 126.562% | 123.099% | 97.2502% |
| CSc1cccnc1N1CCN(Cc2nc3ccccc3[nH]2)CC1 [A-769] | 75.6066% | 105.586% | 118.57% | 113.172% | 125.432% | 98.3481% |
| CN(C)CC#Cc1ccc(OCCCc2sc(N3CCc4cccc(C(=O)Nc5nc6ccccc6s5)c4C3)nc2C(=O)O)c(F)c1 [A-1155463] | 0.3385% | 128.541% | 2.034% | 67.3537% | 1.1769% | 177.943% |
| CO[C@H]1CC[C@H](CNc2ccc(S(=O)(=O)NC(=O)c3ccc(N4CCN(CC5=C(c6ccc(Cl)cc6)CC(C)(C)CC5)CC4)cc3Oc3cnc4[nH]ccc4c3)cc2[N+](=O)[O-])CC1 [A-1211212] | 8.693% | 108.861% | 54.5485% | 97.9178% | 16.4932% | 159.244% |
| COc1ccc2c(c1)O[C@H](c1ccc(OC)c(OC)c1)C[C@@H]2NC(=O)C1(c2ccc3c(c2)OC(F)(F)O3)CC1 [A-1596584] | 86.7173% | 88.6658% | 91.0132% | 118.771% | 73.1553% | 142.746% |
| COc1ccc2c(c1)O[C@@H](c1ccc(OC)c(OC)c1)C[C@H]2NC(=O)C1(c2ccc3c(c2)OC(F)(F)O3)CC1 [A-1596586] | 95.9961% | 117.187% | 83.2966% | 94.4694% | 84.651% | 101.93% |
| CCNC(=O)c1cc2c(-c3cc(C(C)(C)O)ccc3Oc3c(C)cc(F)cc3C)cn(C)c(=O)c2[nH]1 [ABBV-744] | 91.6049% | 287.135% | 77.9517% | 194.681% | 58.4777% | 215.224% |
| CC#CC(=O)N1CCC[C@H]1c1nc(-c2ccc(C(=O)Nc3ccccn3)cc2)c2c(N)nccn12 [ACALABRUTINIB] | 96.562% | 83.4698% | 75.641% | 83.8473% | 96.3915% | 99.9657% |
| CN(C)C/C=C/C(=O)Nc1cc2c(Nc3ccc(F)c(Cl)c3)ncnc2cc1O[C@H]1CCOC1.O=C(O)/C=C\C(=O)O.O=C(O)/C=C\C(=O)O [AFATINIB DIMALEATE] | 26.678% | 56.3894% | 29.0273% | 34.3509% | 37.8231% | 73.123% |
| COc1cc(Nc2ncc3c(n2)-c2ccc(Cl)cc2C(c2c(F)cccc2OC)=NC3)ccc1C(=O)O [ALISERTIB] | 7.435% | 169.322% | 16.3683% | 117.657% | 6.089% | 322.747% |
| Cc1nc(NC(=O)N2CCC[C@H]2C(N)=O)sc1-c1ccnc(C(C)(C)C(F)(F)F)c1 [ALPELISIB] | 74.6278% | 68.5217% | 47.6603% | 61.6268% | 70.8375% | 99.8659% |
| CC(C)[C@H](C(=O)Nc1ccc(C(=O)NO)cc1)c1ccccc1 [AR-42] | 8.004% | 640.047% | 24.8523% | 220.952% | 13.9942% | 352.85% |
| Cc1cnc(-c2cc(Cl)ccc2F)cc1-n1c(=O)n(CC(N)=O)c2ccccc21 [Al11] | 79.8154% | 66.9379% | 90.2433% | 100.795% | 100.628% | 109.542% |
| Cc1ccccc1Oc1cc(-n2c(=O)cc(C(F)(F)F)[nH]c2=O)c2ccccc2c1Cl [BAY-069] | 128.819% | 153.89% | 126.47% | 121.899% | 84.1162% | 119.466% |
| Cn1c(-c2csc(C3CCN(CC4=NC5N=CC=CC5N4)CC3)n2)nc2ccccc21 (stereo not given) [BAY-070] | 29.934% | 49.5381% | 72.3778% | 60.078% | 42.0794% | 84.0468% |
| NS(=O)(=O)c1cc(NC(=O)C2(c3ccccc3Cl)CC2)ccc1Oc1cccc(Cl)c1 [BAY-207] | 102.145% | 97.9535% | 120.584% | 143.533% | 177.814% | 111.752% |
| CNCc1ccccc1-c1csc([C@@H](C)Nc2nc(C)nc3cc(OC)c(OC)cc23)c1 [BAY-293] | 41.2905% | 141.656% | 65.4303% | 97.5193% | 78.2703% | 145.24% |
| Cc1cc(NC(=O)c2cccc(S(F)(F)(F)(F)F)c2)cc(-n2ccn3nc(-c4cccnc4)cc23)c1 [BAY-309] | 58.4282% | 47.7134% | 149.605% | 88.4633% | 122.672% | 127.793% |
| O=C(N1CCS(=O)(=O)CC1)N1C[C@H](c2ccc(OC(F)(F)F)cc2)C[C@H](c2nc(C3CC3)no2)C1 [BAY-386] | 109.098% | 172.496% | 96.4412% | 110.483% | 61.9652% | 114.29% |
| Cc1c(N2CCNCC2)nc2ccc(Br)cc2c1C(=O)NC[C@H](CCC(=O)O)c1ccccc1Cl [BAY-403] | 78.4474% | 70.4581% | 117.744% | 98.3874% | 121.312% | 79.2483% |
